{
  "source": "paper PMC9530166",
  "about": "“Allosteric regulation of glycogen breakdown by the second messenger cyclic di-GMP” (Nature Communications, 2022)",
  "key": {"[1]": {"tested_on": "His6-GlgXD342A", "assay": "BCA reducing-end enzyme assay, GlgXD342A", "assay_type": "biochemical, Streptomyces venezuelae", "conditions": "50 µM c-di-GMP, 0.05% glycogen from rabbit, 1 µM enzyme", "procedure": "Fig. 2 c-di-GMP stimulates glycogen breakdown activity of GlgX in vitro. a Bicinchoninic acid (BCA) in vitro enzyme assay. The purple copper bicinchoninate complex indicating GlgX-mediated generation of reducing ends in glycogen was quantified by photometric measurements at 562 nm. A562 values were converted into reducing ends [µM glucose equivalents] based on D-glucose as a standard. Reactions contained 0.05% (w/v) glycogen from rabbit, 1 µM GlgX and increasing concentrations of c-di-GMP (0–100 µM). Source data are provided as a Source data file. b BCA assay containing 0.05% of either glycogen from rabbit, pullulan, amylopectin from maize or amylose from potato as substrates. Where appropriate, 1 µM GlgX or 50 µM c-di-GMP were added to the reaction samples. Source data are provided as a Source data file. c BCA assay as in a with or without c-di-GMP (50 µM), 0.05% glycogen from rabbit (S) and 1 µM Vnz25270, GlgX, the active site mutants GlgXD342A, GlgXE378A, GlgXD342A+E378A, or the c-di-GMP-binding mutant variant GlgXDETR49-52 as indicated. […]\nHydrolysis of carbohydrates was assessed in vitro by measuring the accumulation of reducing sugar ends using the BCA assay[42] and D-glucose as a standard for calibration (Supplementary Fig. 11). […] 125 μl sample aliquots were transferred in duplicates to a 96 well plate and the absorbance at 562 nm was measured using a plate reader."}, "[2]": {"target": "GlgX (Streptomyces venezuelae, UniProt F2RAW5)", "sequence (F2RAW5 entry or part of it)": "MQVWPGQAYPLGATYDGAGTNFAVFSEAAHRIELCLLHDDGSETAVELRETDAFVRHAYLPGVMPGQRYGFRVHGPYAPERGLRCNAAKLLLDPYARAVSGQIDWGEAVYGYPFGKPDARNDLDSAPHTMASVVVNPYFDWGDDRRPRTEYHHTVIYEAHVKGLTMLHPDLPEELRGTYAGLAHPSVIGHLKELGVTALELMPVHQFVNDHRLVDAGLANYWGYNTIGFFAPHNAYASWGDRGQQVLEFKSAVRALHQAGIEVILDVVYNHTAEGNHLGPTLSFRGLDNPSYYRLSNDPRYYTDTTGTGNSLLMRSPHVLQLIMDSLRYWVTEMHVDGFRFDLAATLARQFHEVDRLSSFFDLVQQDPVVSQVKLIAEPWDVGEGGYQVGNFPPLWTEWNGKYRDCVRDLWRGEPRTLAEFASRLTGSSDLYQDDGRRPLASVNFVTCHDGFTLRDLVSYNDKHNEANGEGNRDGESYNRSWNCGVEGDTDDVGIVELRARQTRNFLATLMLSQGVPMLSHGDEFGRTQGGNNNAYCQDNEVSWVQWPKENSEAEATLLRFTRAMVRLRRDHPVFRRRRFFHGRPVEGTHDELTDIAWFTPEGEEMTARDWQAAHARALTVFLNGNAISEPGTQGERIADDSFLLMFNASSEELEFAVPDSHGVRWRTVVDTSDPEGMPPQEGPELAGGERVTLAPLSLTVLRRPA", "assay": "Fluorescence polarization (FP) binding, wild-type GlgX", "conditions": "summary value of FP (Fig. 5c) and MST (Supplementary Fig. 8); read-out: affinity of GlgX for c-di-GMP", "excerpt": "(§1) Fig. 5 Structure of the S. venezuelae GlgX-c-di-GMP complex. a Ribbon diagram of the S. venezuelae GlgX-c-di-GMP complex with one GlgX subunit colored cyan and the other salmon. Shown as sticks are the c-di-GMP molecules bound at each end of the antiparallel dimer. […] There was clear density for each c-di-GMP molecule. b Close up of the GlgX-c-di-GMP binding interaction. Key residues mediating contacts to the c-di-GMP are shown as sticks and labeled. Hydrogen bonds from GlgX residues that specify binding to the guanine are indicated by yellow dashed lines. c Fluorescence polarization (FP) binding isotherm showing interaction of GlgX, GlgXE47A-R49A and GlgXR438A-R579A for F-c-di-GMP in red, green and blue respectively. Also shown is the binding isotherm for GlgX binding to F-c-di-AMP in black. […] The y-axis and x-axis are millipolarization (mP) units and GlgX concentration (μM), respectively. Shown are representative binding curves for each. The experiments were performed in technical triplicates and the error between measurements reported. Error bars represent SD of the measurements. Source data are provided in the Source data file.\nThus, we used this F-tagged c-di-GMP in fluorescence polarization (FP) studies to quantify the interaction between GlgX and c-di-GMP. […] To ensure that the presence of the fluorescent tag was not impacting the GlgX interaction with c-di-GMP we used microscale thermophoresis (MST) to quantify c-di-GMP binding to GlgX. […] But to further probe the structural model we created GlgXE47A-R49A and GlgXR438A-R579A mutants and performed FP studies with these proteins.\nTo measure c-di-GMP binding to GlgX and GlgX mutants, 2′-O-(6-[Fluoresceinyl]aminohexylcarbamoyl)-cyclic diguanosine monophosphate (2′-Fluo-AHC-c-di-GMP) (BioLog), was used as a fluoresceinated reporter ligand. This molecule is conjugated via a nine atom spacer to one of the c-di-GMP 2′ hydroxyl groups. […] 2′-O-(6-[Fluoresceinyl]aminohexylcarbamoyl)-cyclic diadenosine monophosphate (2′-Fluo-AHC-c-di-AMP) (BioLog) was also used in binding studies to assess specificity of GlgX for c-di-GMP. […]"}, "[3]": {"tested_on": "GlgXR438A-R579A", "assay": "Fluorescence polarization binding, GlgXR438A-R579A", "parameters": "species or system Streptomyces venezuelae", "excerpt": "as §1, with “Error bars represent SD of the measurements. Source data are provided in the Source data file.” left out\nThus, we used this F-tagged c-di-GMP in fluorescence polarization (FP) studies to quantify the interaction between GlgX and c-di-GMP. […] To ensure that the presence of the fluorescent tag was not impacting the GlgX interaction with c-di-GMP we used microscale thermophoresis (MST) to quantify c-di-GMP binding to GlgX. […]"}},
  "data": [
    {"smiles": "Nc1nc2c(ncn2[C@@H]2O[C@@H]3CO[P@](=O)(O)O[C@H]4[C@@H](O)[C@H](n5cnc6c(=O)[nH]c(N)nc65)O[C@@H]4CO[P@](=O)(O)O[C@H]3[C@H]2O)c(=O)[nH]1", "note": "[c-di-GMP, bis-(3′−5′)-cyclic diguanosine monophosphate]", "values": [
      {"measurement": "stimulation of enzyme activity by c-di-GMP", "setting": "[1]", "result": "could not be stimulated"},
      {"measurement": "Kd", "setting": "[2]", "result": "~8", "unit": "µM"},
      {"measurement": "binding to mutant in FP", "setting": "[3]", "result": "weak, nonsaturable binding"}
    ]}
  ]
}
